target: T1, UCHL1 (Homo sapiens, UniProt P09936); experiment: UCHL1 biochemical IC50 assay (fluorescence polarisation); conditions: 30 min enzyme/compound pre-incubation at room temp, read after 2 hr incubation, read-out: Activity range (UCHL1 biochemical IC50 assay)
T1 construct: made in house; host or cells: HEK293T
T1 sequence (P09936 1-223): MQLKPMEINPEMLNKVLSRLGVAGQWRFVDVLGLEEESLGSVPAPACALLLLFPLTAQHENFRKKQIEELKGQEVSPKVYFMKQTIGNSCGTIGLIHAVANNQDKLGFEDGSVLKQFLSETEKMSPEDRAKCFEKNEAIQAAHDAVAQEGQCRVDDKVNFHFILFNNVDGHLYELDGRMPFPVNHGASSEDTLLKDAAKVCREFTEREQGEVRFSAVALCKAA
Method in brief: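 Fluorescence polarisation (ex 540/em 590 nm) of 50 nM TAMRA-labelled ubiquitin–peptide isopeptide substrate was read at time zero and after 2 h at room temperature. Compounds (100–0.03 μM final, in duplicate) were given 30 min preincubation with N-FLAG UCHL1 from HEK293T cells in pH 7.5 Tris buffer.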

IC50 [nM]	Compound
< 1000	N#CN1CC[C@H](C(=O)Nc2cn3cc(C(F)(F)F)ccc3n2)C1 [Example 270, (S)-1-cyano-N-(6-(trifluoromethyl)imidazo[1,2-a]pyridin-2-yl)pyrrolidine-3-carboxamide]
< 1000	Cc1cccc(-c2cc(NC(=O)[C@H]3CCN(C#N)C3)nn2C)c1 [Example 271, (S)-1-cyano-N-(1-methyl-5-(m-tolyl)-1H-pyrazol-3-yl)pyrrolidine-3-carboxamide]
1000 to 10000	N#CN1CC[C@H](C(=O)Nc2cnc3ccccc3c2)C1 [Example 272, (S)-1-cyano-N-(quinolin-3-yl)pyrrolidine-3-carboxamide]
1000 to 10000	CC(C)(C)c1ccnc(NC(=O)[C@H]2CCN(C#N)C2)c1 [Example 273, (S)-N-(4-(tert-butyl)pyridin-2-yl)-1-cyanopyrrolidine-3-carboxamide]
1000 to 10000	N#CN1CC[C@H](C(=O)Nc2cc(-c3ccncc3)ncn2)C1 [Example 274, (S)-1-cyano-N-(6-(pyridin-4-yl)pyrimidin-4-yl)pyrrolidine-3-carboxamide]
1000 to 10000	N#CN1CC[C@H](C(=O)Nc2cc(-c3ccccc3)cnn2)C1 [Example 275, (S)-1-cyano-N-(5-phenylpyridazin-3-yl)pyrrolidine-3-carboxamide]
< 1000	N#CN1CC[C@H](C(=O)Nc2cn3cc(-c4cnco4)ccc3n2)C1 [Example 276, (S)-1-cyano-N-(6-(oxazol-5-yl)imidazo[1 ,2-a]pyridin-2-yl)pyrrolidine-3-carboxamide]
< 1000	CC(C)S(=O)(=O)N1CCc2nc(NC(=O)[C@H]3CCN(C#N)C3)sc2CC1 [Example 277, (S)-1-cyano-N-(6-(isopropylsulfonyl)-5,6,7,8-tetrahydro-4H-thiazolo[4,5-d]azepin-2-yl)pyrrolidine-3-carboxamide]
< 1000	COCCn1cc(-c2ccc(-n3cnc(NC(=O)[C@H]4CCN(C#N)C4)c3)cc2)cn1 [Example 278, (S)-1-cyano-N-(1-(4-(1-(2-methoxyethyl)-1H-pyrazol-4-yl)phenyl)-1H-imidazol-4-yl)pyrrolidine-3-carboxamide]
1000 to 10000	N#CN1CC2CC2(C(=O)Nc2ncc(-c3ccccc3)s2)C1 (stereo not drawn) [Example 279, 3-cyano-N-(5-phenylthiazol-2-yl)-3-azabicyclo[3.1.0]hexane-1-carboxamide]
1000 to 10000	N#CN1CC(C(=O)Nc2ncc(-c3ccccc3)s2)C2CC21 (stereo not drawn) [Example 280, 2-cyano-N-(5-phenylthiazol-2-yl)-2-azabicyclo[3.1.0]hexane-4-carboxamide]
< 1000	N#CN1C[C@@H](C(F)(F)F)[C@H](C(=O)Nc2ncc(-c3ccccc3)s2)C1 [Example 281, (3S, 4S)-1-cyano-N-(5-phenylthiazol-2-yl)-4-(trifluoromethyl)pyrrolidine-3-carboxamide]
< 1000	COC1(C(=O)Nc2ncc(-c3ccccc3)s2)CCN(C#N)C1 (stereo not drawn) [Example 284, 1-cyano-3-methoxy-N-(5-phenylthiazol-2-yl)pyrrolidine-3-carboxamide]
1000 to 10000	Cc1noc(C)c1-c1cnc2nc(NC(=O)[C@H]3CCN(C#N)C3)sc2c1 [Example 285, (S)-1-cyano-N-(6-(3,5-dimethylisoxazol-4-yl)thiazolo[4,5-b]pyridin-2-yl)pyrrolidine-3-carboxamide]
< 1000	Cc1noc(C)c1-c1ccc2nc(NC(=O)[C@H]3CCN(C#N)C3)sc2n1 [Example 286, (S)-1-cyano-N-(5-(3,5-dimethylisoxazol-4-yl)thiazolo[5,4-b]pyridin-2-yl)pyrrolidine-3-carboxamide]
< 1000	Cc1cccc(C)c1-c1ccc2nc(NC(=O)[C@H]3CCN(C#N)C3)sc2c1 [Example 287, (S)-1-cyano-N-(6-(2,6-dimethylphenyl)benzo[d]thiazol-2-yl)pyrrolidine-3-carboxamide]
< 1000	Cc1nn(C)cc1-c1ccc2nc(NC(=O)[C@H]3CCN(C#N)C3)sc2c1 [Example 288, (S)-1-cyano-N-(6-(1,3-dimethyl-1H-pyrazol-4-yl)benzo[d]thiazol-2-yl)pyrrolidine-3-carboxamide]
< 1000	N#CN1CC[C@H](C(=O)Nc2cc3cc(-c4cn[nH]c4C(F)(F)F)ccc3cn2)C1 [Example 289, (S)-1-cyano-N-(6-(5-(trifluoromethyl)-1H-pyrazol-4-yl)isoquinolin-3-yl)pyrrolidine-3-carboxamide]
< 1000	Cc1oncc1-c1cccc(-c2ccnc(NC(=O)[C@H]3CCN(C#N)C3)c2)c1 [Example 290, (S)-1-cyano-N-(4-(3-(5-methylisoxazol-4-yl)phenyl)pyridin-2-yl)pyrrolidine-3-carboxamide]
1000 to 10000	N#CN1CC[C@H](C(=O)Nc2cc(-c3cn[nH]c3)ccn2)C1 [Example 291, (S)-N-(4-(1H-pyrazol-4-yl)pyridin-2-yl)-1-cyanopyrrolidine-3-carboxamide]

IC50 [nM]	Compound
1000 to 10000	N#CN1CC[C@H](C(=O)Nc2nc3ccc(-c4cn[nH]c4)cc3s2)C1 [Example 292, (S)-N-(6-(1H-pyrazol-4-yl)benzo[d]thiazol-2-yl)-1-cyanopyrrolidine-3-carboxamide]
< 1000	N#CN1CC[C@H](C(=O)Nc2cn(-c3ccc(-c4cn[nH]c4)cc3)cn2)C1 [Example 294, (S)-N-(1-(4-(1H-pyrazol-4-yl)phenyl)-1H-imidazol-4-yl)-1-cyanopyrrolidine-3-carboxamide]
1000 to 10000	Cc1[nH]ncc1-c1ccnc(NC(=O)[C@H]2CCN(C#N)C2)c1 [Example 295, (S)-1-cyano-N-(4-(5-methyl-1H-pyrazol-4-yl)pyridin-2-yl)pyrrolidine-3-carboxamide]
10000 to 30000	Cc1noc(C)c1-c1cc2sc(NC(=O)[C@H]3CCN(C#N)C3)nc2cn1 [Example 296, (S)-1-cyano-N-(6-(3,5-dimethylisoxazol-4-yl)thiazolo[4,5-c]pyridin-2-yl)pyrrolidine-3-carboxamide]
< 1000	Cc1oncc1-c1cc(-c2ccnc(NC(=O)[C@H]3CCN(C#N)C3)c2)ccn1 [Example 297, (S)-1-cyano-N-(2′-(5-methylisoxazol-4-yl)-[4-4′-bipyridin]-2-yl)pyrrolidine-3-carboxamide]
< 1000	Cc1nn(C)c2ccc(-n3cnc(NC(=O)[C@H]4CCN(C#N)C4)c3)cc12 [Example 298, (S)-1-cyano-N-(1-(1,3-dimethyl-1H-indazol-5-yl)-1H-imidazol-4-yl)pyrrolidine-3-carboxamide]
< 1000	Cc1n[nH]c2cc(-n3cnc(NC(=O)[C@H]4CCN(C#N)C4)c3)ccc12 [Example 299, (S)-1-cyano-N-(1-(3-methyl-1H-indazol-6-yl)-1H-imidazol-4-yl)pyrrolidine-3-carboxamide]
< 1000	N#CN1CC[C@H](C(=O)Nc2cn(-c3ccc4[nH]ncc4c3)cn2)C1 [Example 300, (S)-N-(1-(1H-indazol-5-yl)-1H-imidazol-4-yl)-1-cyanopyrrolidine-3-carboxamide]
< 1000	N#CN1CC[C@H](C(=O)Nc2cn(-c3ccc4cn[nH]c4c3)cn2)C1 [Example 301, (S)-N-(1-(1H-indazol-6-yl)-1H-imidazol-4-yl)-1-cyanopyrrolidine-3-carboxamide]
< 1000	COc1cc(-n2cnc(NC(=O)[C@H]3CCN(C#N)C3)c2)ccc1F [Example 302, (S)-1-cyano-N-(1-(4-fluoro-3-methoxyphenyl)-1H-imidazol-4-yl)pyrrolidine-3-carboxamide]
< 1000	N#CN1CC[C@H](C(=O)Nc2cn(-c3cccc4[nH]ncc34)cn2)C1 [Example 303, (S)-N-(1-(1H-indazol-4-yl)-1H-imidazol-4-yl)-1-cyanopyrrolidine-3-carboxamide]
< 1000	N#Cc1ccc(-n2cnc(NC(=O)[C@H]3CCN(C#N)C3)c2)cc1C1CC1 [Example 304, (S)-1-cyano-N-(1-(4-cyano-3-cyclopropylphenyl)-1H-imidazol-4-yl)pyrrolidine-3-carboxamide]
< 1000	N#CN1CC[C@H](C(=O)Nc2cn(-c3ccnc4ccccc34)cn2)C1 [Example 305, (S)-1-cyano-N-(1-(quinolin-4-yl)-1H-imidazol-4-yl)pyrrolidine-3-carboxamide]
< 1000	N#Cc1ccc(C2CC2)cc1-n1cnc(NC(=O)[C@H]2CCN(C#N)C2)c1 [Example 306, (S)-1-cyano-N-(1-(2-cyano-5-cyclopropylphenyl)-1H-imidazol-4-yl)pyrrolidine-3-carboxamide]
< 1000	COc1cc(-n2cnc(NC(=O)[C@H]3CCN(C#N)C3)c2)ccc1C#N [Example 307, (S)-1-cyano-N-(1-(4-cyano-3-methoxyphenyl)-1H-imidazol-4-yl)pyrrolidine-3-carboxamide]
< 1000	Cc1cc(-n2cnc(NC(=O)[C@H]3CCN(C#N)C3)c2)ccc1C#N [Example 308, (S)-1-cyano-N--(1-(4-cyano-3-methylphenyl)-1H-imidazol-4-yl)pyrrolidine-3-carboxamide]
< 1000	N#Cc1ccc(-n2cnc(NC(=O)[C@H]3CCN(C#N)C3)c2)cc1C(F)(F)F [Example 309, (S)-1-cyano-N-(1-(4-cyano-3-(trifluoromethyl)phenyl)-1H-imidazol-4-yl)pyrrolidine-3-carboxamide]
< 1000	N#Cc1ccc(-n2cnc(NC(=O)[C@H]3CCN(C#N)C3)c2)cc1OC(F)(F)F [Example 310, (S)-1-cyano-N-(1-(4-cyano-3-(trifluoromethoxy)phenyl)-1H-imidazol-4-yl)pyrrolidine-3-carboxamide]
1000 to 10000	(S)-1-cyano-N-(isoquinolin-yl)pyrrolidine-3-carboxamide [Example 58]
